Data taken from patent US8452543B2, “High throughput screening for antimicrobial dosing regimens” (priority 2005, dated 2013).
Where two headings read alike, the source gives them in different places.

Experiments:
P. aeruginosa ATCC 27853 = experiment: Time-kill studies and growth dynamics model, meropenem; format: cell-based, Pseudomonas aeruginosa; conditions: for EC50: read-out: Ck50 (the source's name)
Description: Time-kill studies were conducted with different and escalating meropenem concentrations. […] An overnight culture of the isolate was diluted 30-fold with pre-warmed Ca-MHB and incubated further at 35 8 C until reaching late log phase growth. The bacterial suspension was diluted with Ca-MHB accordingly based on absorbance at 630 nm; 15 mL of the suspension was transferred to 50 mL sterile conical flasks each containing 1 mL of an antimicrobial agent solution at 16 the target concentration. The final concentration of the bacterial suspension in each flask was 1×10^8 cfu/mL. The high inoculum used was to simulate the bacterial load in severe infection, and to allow resistant sub-population(s) to be present at baseline. The experiment was conducted for 24 h in a shaker water bath set at 35 8 C. Serial samples in duplicate were obtained from each flask over 24 h, at 0 (baseline), 2, 4, 8, 12, and 24 h, to characterize the effect of various meropenem concentrations on the total bacterial population. Prior to culturing the bacteria quantitatively, the bacterial samples (0.5 mL) were centrifuged at 10000 g for 15 min, and reconstituted with sterile normal saline to their original volumes in order to minimize drug carry-over effect. Total bacterial populations were quantified by spiral plating 10 serial dilutions of the samples ([…]) onto MHA plates. The media plates were incubated in a humidified incubator (35 8 C) for 18-24 h, and the bacterial density from each sample was determined by CASBA-4 colony scanner/software (Spiral Biotech, Bethesda, Md., USA). The theoretical lower limit of detection was 400 cfu/mL.
The time courses of bacterial burden under different drug exposures is described using a mathematical model. The population balance for a bacterial population is determined by: Rate of change of bacterial population over time=intrinsic growth rate−kill rate by antimicrobial agent or
In contrast to the conventional approach in which the final observed effects are modelled, information over time was utilized to develop a dynamic model system that would capture bacterial growth/killing rates. The starting point was a mathematical model describing the time course of bacterial burden [biological response, N(t)] under the influence of various antimicrobial agent concentrations C(t). The rate of change of bacteria over time was expressed as the difference between the intrinsic bacterial growth rate and the kill rate provided by the antimicrobial agent (Eq. 35). Based on previous studies, a linear bacterial growth rate was adopted. Additional model parameters were used to account for other physiological phenomena such as contact inhibition (using a maximum population size) and non-linear (sigmoidal) kill rate to account for target site saturation. Regrowth was attributed to adaptation, which was explicitly modelled as increase in the concentration necessary to achieve 50% maximal kill rate (C50k), using a saturable function of antimicrobial agent selective pressure (both meropenem concentration and time) (Eq. 36).
The experimental data derived from the time-kill studies were analysed by population analysis, using the non-parametric adaptive grid (NPAG) program (28). The killing profile observed with each meropenem concentration was input as a subject in the population analysis. The search algorithm sought the combination of parameter values and their distributions that would have the highest likelihood of explaining the observations made with all the meropenem concentrations in a single step (as opposed to fixing some parameter estimates sequentially while estimating the others). The explicit assumption was made that overall observation variance was proportional to variance of the measurement, i.e. quantitative cultures. The proportionality constant g was optimized with each cycle of the analysis.

[1] = test system: amikacin resistant A. baumannii isolates; experiment: Resistance confirmation, repeat susceptibility testing, amikacin; format: cell-based, Acinetobacter baumannii; conditions: amikacin resistant isolates
Description: The media plates were incubated at 35° C. for up to 24 (total population) and 72 hours (sub-populations with reduced susceptibility), then bacterial density from each sample was enumerated visually. The theoretical lower limit of detection was 400 CFU/ml.

[2] = Mean of the parameter estimates

`C[C@@H](O)[C@H]1C(=O)N2C(C(=O)O)=C(S[C@@H]3CN[C@H](C(=O)N(C)C)C3)[C@H](C)[C@H]12` [meropenem] was tested, and the regrowth (P. aeruginosa ATCC 27853; 0.25 MIC and 1 MIC, between 12 and 24 h) was “Regrowth was observed”, the Kg (P. aeruginosa ATCC 27853; [2]) was 4.71 h − 1 and the Kg (P. aeruginosa ATCC 27853; meropenem Concn 0.25 mg/L) was 9.60 h − 1. For the same compound, the Kg (P. aeruginosa ATCC 27853; meropenem Concn 1 mg/L) was 4.08 h − 1, the Kg (P. aeruginosa ATCC 27853; meropenem Concn 4 mg/L) was 3.12 h − 1 and the Kg (P. aeruginosa ATCC 27853; meropenem Concn 16 mg/L) was 3.41 h − 1. For the same compound, the Kg (P. aeruginosa ATCC 27853; meropenem Concn 64 mg/L) was 3.95 h − 1, the H (P. aeruginosa ATCC 27853; [2]) was 2.83 and the β (P. aeruginosa ATCC 27853; [2]) was 5.85. The τ (P. aeruginosa ATCC 27853; [2]) was 158 µL/min/mg, the MIC (P. aeruginosa ATCC 27853; Pseudomonas aeruginosa, ATCC27853, 24 h, validation time-kill, meropenem at 2 MIC, read-out: MIC of the entire bacterial population at 24 h) was > 1 µg/mL and the EC50 (P. aeruginosa ATCC 27853; Pseudomonas aeruginosa, ATCC27853, Mean of the parameter estimates) was 2.29 µg/mL. For the same compound, the EC50 (P. aeruginosa ATCC 27853; Pseudomonas aeruginosa, ATCC27853, meropenem Concn 0.25 mg/L) was 0.44 µg/mL, the EC50 (P. aeruginosa ATCC 27853; Pseudomonas aeruginosa, ATCC27853, meropenem Concn 1 mg/L) was 3.53 µg/mL and the EC50 (P. aeruginosa ATCC 27853; Pseudomonas aeruginosa, ATCC27853, meropenem Concn 4 mg/L) was 0.74 µg/mL. For the same compound, the EC50 (P. aeruginosa ATCC 27853; Pseudomonas aeruginosa, ATCC27853, meropenem Concn 16 mg/L) was 2.61 µg/mL, the EC50 (P. aeruginosa ATCC 27853; Pseudomonas aeruginosa, ATCC27853, meropenem Concn 64 mg/L) was 2.9 µg/mL and the “concentration necessary to attain 80% maximal kill rate (C80k)” value (P. aeruginosa ATCC 27853; at baseline) was 3.8 mg/L. The “concentration necessary to attain 90% maximal kill rate (C90k)” value (P. aeruginosa ATCC 27853; at baseline) was 5.0 mg/L, the H (P. aeruginosa ATCC 27853; meropenem Concn 0.25 mg/L) was 3.81 and the β (P. aeruginosa ATCC 27853; meropenem Concn 0.25 mg/L) was 3.79. The τ (P. aeruginosa ATCC 27853; meropenem Concn 0.25 mg/L) was 350 µL/min/mg, the H (P. aeruginosa ATCC 27853; meropenem Concn 1 mg/L) was 1.48 and the β (P. aeruginosa ATCC 27853; meropenem Concn 1 mg/L) was 6.64. The τ (P. aeruginosa ATCC 27853; meropenem Concn 1 mg/L) was 183 µL/min/mg, the H (P. aeruginosa ATCC 27853; meropenem Concn 4 mg/L) was 1.67 and the β (P. aeruginosa ATCC 27853; meropenem Concn 4 mg/L) was 4.48. For the same compound, the τ (P. aeruginosa ATCC 27853; meropenem Concn 4 mg/L) was 115 µL/min/mg, the H (P. aeruginosa ATCC 27853; meropenem Concn 16 mg/L) was 7.74 and the β (P. aeruginosa ATCC 27853; meropenem Concn 16 mg/L) was 4.85. The τ (P. aeruginosa ATCC 27853; meropenem Concn 16 mg/L) was 85 µL/min/mg, the H (P. aeruginosa ATCC 27853; meropenem Concn 64 mg/L) was 0.79 and the β (P. aeruginosa ATCC 27853; meropenem Concn 64 mg/L) was 8.70. For the same compound, the τ (P. aeruginosa ATCC 27853; meropenem Concn 64 mg/L) was 23.3 µL/min/mg, the “drop in bacterial burden at 24 h” value (P. aeruginosa ATCC 27853; meropenem concentrations 4 MIC (4 mg/L)) was > 2 log and the “concentration at which initial killing appeared maximized” value (P. aeruginosa ATCC 27853; time-kill) was 4 MIC. For the same compound, the killing profile (P. aeruginosa ATCC 27853; time-kill) was “partially concentration-dependent”, the regrowth (P. aeruginosa ATCC 27853; validation time-kill, meropenem at 2 MIC) was “regrowth” and the regrowth (P. aeruginosa ATCC 27853; validation time-kill, meropenem at 32 MIC) was “no regrowth was observed”. The cross-resistance [1] was “not”.
